ChEMBL document CHEMBL1201862, “PubChem BioAssay data set” (2004)
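Interpolation was linear, between the two tested concentrations surrounding the appropriate level; five concentrations were tested over 48 hours in 96-well plates. GI50 = concentration required for 50% inhibition of growth.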 Calls of active or inactive are those of the source. No stated cut-off is given here; in the data, active = GI50 up to about 1.1 µM and inactive = higher.

Columns and labels:
Assay in all cases: NCI-60 cell line screen, 48 h
786-0 = system: 786-0
A498 = system: A498
A549 = system: A549
ACHN = system: ACHN
BT-549 = system: BT-549
CAKI-1 = system: CAKI-1
CCRF-CEM = system: CCRF-CEM
COLO 205 = system: COLO 205
DU-145 = system: DU-145
EKVX = system: EKVX
HCC 2998 = system: HCC 2998
HCT-116 = system: HCT-116
HCT-15 = system: HCT-15
HL-60 = system: HL-60
HOP-62 = system: HOP-62
HOP-92 = system: HOP-92
HT-29 = system: HT-29
Hs-578T = system: Hs-578T
K562 = system: K562
KM12 = system: KM12
LOX IMVI = system: LOX IMVI
M14 = system: M14
MCF7 = system: MCF7
MDA-MB-435 = system: MDA-MB-435
MOLT-4 = system: MOLT-4
Malme-3M = system: Malme-3M
NCI-H23 = system: NCI-H23
NCI-H460 = system: NCI-H460
NCI-H522 = system: NCI-H522
NCI/ADR-RES = system: NCI/ADR-RES
OVCAR-3 = system: OVCAR-3
OVCAR-4 = system: OVCAR-4
OVCAR-5 = system: OVCAR-5
OVCAR-8 = system: OVCAR-8
PC-3 = system: PC-3
RPMI-8226 = system: RPMI-8226
RXF 393 = system: RXF 393
SF-268 = system: SF-268
SF-295 = system: SF-295
SF-539 = system: SF-539
SK-MEL-28 = system: SK-MEL-28
SK-MEL-2 = system: SK-MEL-2
SK-MEL-5 = system: SK-MEL-5
SK-OV-3 = system: SK-OV-3
SN12C = system: SN12C
SNB-19 = system: SNB-19
SNB-75 = system: SNB-75
SW-620 = system: SW-620
T47D = system: T47D
TK-10 = system: TK-10
U-251 = system: U-251
UACC-257 = system: UACC-257
UO-31 = system: UO-31
IGROV-1 = system: IGROV-1
MDA-MB-231 = system: MDA-MB-231
MDA-N = system: MDA-N
NCI-H226 = system: NCI-H226
UACC-62 = system: UACC-62
SR = system: SR

SMILES: N#CCc1n[nH]c2nc(SCc3ccccc3)nc(N3CCCCC3)c12
- GI50 (786-0): 17.3 µM (inactive)
- GI50 (A498): 30.5 µM (inactive)
- GI50 (A549): 19.3 µM (inactive)
- GI50 (ACHN): 21200 nM (inactive)
- GI50 (BT-549): 18.6 µM (inactive)
- GI50 (CAKI-1): 19.9 µM (inactive)
- GI50 (CCRF-CEM): 17300 nM (inactive)
- GI50 (COLO 205): 17.9 µM (inactive)
- GI50 (DU-145): 18.2 µM (inactive)
- GI50 (EKVX): 20.5 µM (inactive)
- GI50 (HCC 2998): 17.5 µM (inactive)
- GI50 (HCT-116): 17.7 µM (inactive)
- GI50 (HCT-15): 32700 nM
- GI50 (HL-60): 25.8 µM (inactive)
- GI50 (HOP-62): 20.4 µM (inactive)
- GI50 (HOP-92): 16.6 µM (inactive)
- GI50 (HT-29): 20.3 µM (inactive)
- GI50 (Hs-578T): 21.4 µM (inactive)
- GI50 (K562): 18.6 µM (inactive)
- GI50 (KM12): 17.7 µM (inactive)
- GI50 (LOX IMVI): 21 µM (inactive)
- GI50 (M14): 19.4 µM (inactive)
- GI50 (MCF7): 21.9 µM (inactive)
- GI50 (MDA-MB-435): 19.9 µM (inactive)
- GI50 (MOLT-4): 20.6 µM (inactive)
- GI50 (Malme-3M): 24.5 µM (inactive)
- GI50 (NCI-H23): 18.5 µM (inactive)
- GI50 (NCI-H460): 19.6 µM (inactive)
- GI50 (NCI-H522): 19.3 µM (inactive)
- GI50 (NCI/ADR-RES): 17.6 µM (inactive)
- GI50 (OVCAR-3): 20.7 µM (inactive)
- GI50 (OVCAR-4): 19.5 µM (inactive)
- GI50 (OVCAR-5): 20.2 µM (inactive)
- GI50 (OVCAR-8): 38.9 µM (inactive)
- GI50 (PC-3): 18.8 µM (inactive)
- GI50 (RPMI-8226): 27.1 µM (inactive)
- GI50 (RXF 393): 17.1 µM (inactive)
- GI50 (SF-268): 19.2 µM (inactive)
- GI50 (SF-295): 19.6 µM (inactive)
- GI50 (SF-539): 21.4 µM (inactive)
- GI50 (SK-MEL-28): 20.5 µM (inactive)
- GI50 (SK-MEL-2): 20.7 µM (inactive)
- GI50 (SK-MEL-5): 18.5 µM (inactive)
- GI50 (SK-OV-3): 26.4 µM (inactive)
- GI50 (SN12C): 13 µM (inactive)
- GI50 (SNB-19): 18.9 µM (inactive)
- GI50 (SNB-75): 18.2 µM (inactive)
- GI50 (SW-620): 19.5 µM (inactive)
- GI50 (T47D): 19.5 µM (inactive)
- GI50 (TK-10): 23.1 µM (inactive)
- GI50 (U-251): 18700 nM (inactive)
- GI50 (UACC-257): 20.8 µM (inactive)
- GI50 (UO-31): 20.1 µM (inactive)

SMILES: COc1cc2cc(C(=O)N3CC(CCl)c4c3cc(NC(=O)C(C)Nc3c([N+](=O)[O-])cc(C(=O)NCCN(C)C)cc3[N+](=O)[O-])c3ccccc43)[nH]c2c(OC)c1OC (configuration not stated)
- GI50 (786-0): 0.0204 µM (active)
- GI50 (A498): 0.212 µM (active)
- GI50 (A549): 0.0682 µM (active)
- GI50 (ACHN): 32 nM (active)
- GI50 (BT-549): 0.187 µM (active)
- GI50 (CAKI-1): 0.22 µM (active)
- GI50 (CCRF-CEM): < 10 nM (active)
- GI50 (COLO 205): 0.0515 µM (active)
- GI50 (DU-145): < 0.0182 µM (active)
- GI50 (EKVX): 0.229 µM (active)
- GI50 (HCC 2998): 0.0315 µM (active)
- GI50 (HCT-116): 0.0743 µM (active)
- GI50 (HCT-15): 164 nM
- GI50 (HOP-62): 0.0619 µM (active)
- GI50 (HOP-92): 0.0285 µM (active)
- GI50 (HT-29): 0.055 µM (active)
- GI50 (IGROV-1): 120 nM (active)
- GI50 (K562): 0.0363 µM (active)
- GI50 (KM12): 0.119 µM (active)
- GI50 (LOX IMVI): 0.0478 µM (active)
- GI50 (M14): 0.187 µM (active)
- GI50 (MCF7): 0.0118 µM (active)
- GI50 (MDA-MB-231): 180 nM (active)
- GI50 (MDA-MB-435): 0.16 µM (active)
- GI50 (MDA-N): 158 nM (active)
- GI50 (MOLT-4): 0.0244 µM (active)
- GI50 (Malme-3M): 0.129 µM (active)
- GI50 (NCI-H226): 113 nM (active)
- GI50 (NCI-H23): < 0.01 µM (active)
- GI50 (NCI-H460): 0.0157 µM (active)
- GI50 (NCI-H522): 0.0172 µM (active)
- GI50 (NCI/ADR-RES): 0.441 µM (active)
- GI50 (OVCAR-3): 0.201 µM (active)
- GI50 (OVCAR-4): 0.191 µM (active)
- GI50 (OVCAR-5): 0.0555 µM (active)
- GI50 (OVCAR-8): 0.132 µM (active)
- GI50 (PC-3): 0.177 µM (active)
- GI50 (SF-268): 0.0202 µM (active)
- GI50 (SF-295): 0.129 µM (active)
- GI50 (SF-539): 0.0331 µM (active)
- GI50 (SK-MEL-28): 0.123 µM (active)
- GI50 (SK-MEL-2): 0.0675 µM (active)
- GI50 (SK-MEL-5): 0.104 µM (active)
- GI50 (SK-OV-3): 0.21 µM (active)
- GI50 (SN12C): 0.105 µM (active)
- GI50 (SNB-19): 0.14 µM (active)
- GI50 (SNB-75): 0.0272 µM (active)
- GI50 (SW-620): 0.117 µM (active)
- GI50 (T47D): 0.046 µM (active)
- GI50 (TK-10): 0.333 µM (active)
- GI50 (U-251): 17.8 nM (active)
- GI50 (UACC-257): 0.182 µM (active)
- GI50 (UACC-62): 58.6 nM (active)
- GI50 (UO-31): 0.451 µM (active)

SMILES: O=C(CSCC(=O)N/N=C\c1cc(Cl)cc(Cl)c1O)N/N=C\c1cc(Cl)cc(Cl)c1O
- GI50 (786-0): 6.46 µM (inactive)
- GI50 (A549): 18.7 µM (inactive)
- GI50 (ACHN): 204 nM (active)
- GI50 (BT-549): 4.81 µM (inactive)
- GI50 (CAKI-1): 3.48 µM (inactive)
- GI50 (CCRF-CEM): 294 nM (active)
- GI50 (COLO 205): 6.1 µM (inactive)
- GI50 (DU-145): 8.91 µM (inactive)
- GI50 (EKVX): 4.45 µM (inactive)
- GI50 (HCT-116): 2.9 µM (inactive)
- GI50 (HCT-15): 2990 nM
- GI50 (HL-60): 2.75 µM (inactive)
- GI50 (HOP-62): 5.69 µM (inactive)
- GI50 (HOP-92): 5.73 µM (inactive)
- GI50 (HT-29): 10.5 µM (inactive)
- GI50 (Hs-578T): 2.08 µM (inactive)
- GI50 (IGROV-1): 3370 nM (inactive)
- GI50 (K562): 2.37 µM (inactive)
- GI50 (KM12): 6.1 µM (inactive)
- GI50 (LOX IMVI): 1.38 µM (inactive)
- GI50 (M14): 4.93 µM (inactive)
- GI50 (MCF7): 7.29 µM (inactive)
- GI50 (MDA-MB-231): 2480 nM (inactive)
- GI50 (MDA-MB-435): 8.04 µM (inactive)
- GI50 (MOLT-4): 1.63 µM (inactive)
- GI50 (Malme-3M): 1.87 µM (inactive)
- GI50 (NCI-H226): 3620 nM (inactive)
- GI50 (NCI-H23): 10.1 µM (inactive)
- GI50 (NCI-H460): 14.9 µM (inactive)
- GI50 (NCI-H522): 1.71 µM (inactive)
- GI50 (NCI/ADR-RES): 2.96 µM (inactive)
- GI50 (OVCAR-3): 1.69 µM (inactive)
- GI50 (OVCAR-4): 2.42 µM (inactive)
- GI50 (OVCAR-5): 10.4 µM (inactive)
- GI50 (OVCAR-8): 2.1 µM (inactive)
- GI50 (PC-3): 4.27 µM (inactive)
- GI50 (RXF 393): 20.5 µM (inactive)
- GI50 (SF-268): 2.32 µM (inactive)
- GI50 (SF-295): 6.53 µM (inactive)
- GI50 (SF-539): 2.58 µM (inactive)
- GI50 (SK-MEL-28): 5.21 µM (inactive)
- GI50 (SK-MEL-2): 2.51 µM (inactive)
- GI50 (SK-MEL-5): 3.42 µM (inactive)
- GI50 (SK-OV-3): 8.55 µM (inactive)
- GI50 (SN12C): 4.33 µM (inactive)
- GI50 (SNB-19): 16.7 µM (inactive)
- GI50 (SNB-75): 12.4 µM (inactive)
- GI50 (SR): 1.77 µM (inactive)
- GI50 (SW-620): 3.79 µM (inactive)
- GI50 (T47D): 3.08 µM (inactive)
- GI50 (TK-10): 3.63 µM (inactive)
- GI50 (U-251): 515 nM (active)
- GI50 (UACC-257): 5.28 µM (inactive)
- GI50 (UACC-62): 3640 nM (inactive)
- GI50 (UO-31): 4 µM (inactive)
